Results on one molecule are retold here after patent US20140121278A1, “ANTI-TUMOR AGENT OTX-008 TARGETS HUMAN GALECTIN-1” (REGENTS OF THE UNIVERSITY OF MINNESOTA, priority 2012, published 2014).

Where two headings read alike, the source gives them in different places.

The nature of data set [1]: Phase I clinical trial with terminal cancer patients. Type of data set: in vivo, human. The note with it: preliminary, daily subcutaneous injection, 1 mg/Kg. From the text: In an embodiment, OTX-008 is a therapeutic agent for use against cancer. As a therapeutic agent, calixarene OTX-008 is a significant improvement over both Anginex and 6DBF7, as well as over any carbohydrate-based compound, for multiple reasons. OTX-008 (937 Da) approaches the generally accepted definition of a “small molecule” (i.e. <500 Da). OTX-008 should have better in vivo exposure, because it is non-peptidic and non-carbohydrate, and therefore is non-hydrolyzable. Moreover, because of its aryl-crown structure, OTX-008 should be chemically stable and less likely to be metabolized in vivo than any peptide or carbohydrate-based compound. […] In an embodiment, OTX-008 is a promising anti-tumor agent that targets galectin-1 as a first-in-class therapeutic agent.

Data set [2] concerns the target T1, gal-1 binding to cell surface glycans on splenocytes (CD4+ and CD8+ leukocytes, CD31+ endothelial cells) (Homo sapiens, UniProt P09382).
T1 construct: made in house; host or cells: E. coli BL21 (DE3) (the only gal-1 preparation described)
Kind of data set: Flow cytometry: FITC-gal-1 binding to cell surface glycans on splenocytes. Type of data set: cell-based, gal-1 null mice. Particulars: for inhibition at 20 µM: 20 μM OTX-008, 0.1 μM gal-1; for inhibition at 100 µM: 100 μM OTX-008. As to the method: FIGS. 6A and 6B depict the results of flow cytometry used to assess the effects of OTX-008 (“0118”) on FITC-gal-1 binding to splenocytes (CD4+ and CD8+ leukocytes and CD31+ endothelial cells). FIG. 6A illustrates the binding of FITC-gal-1 (0.1 μM or 0.2 μM) to these cells as a function of OTX-008 concentration. FIG. 6B illustrates the binding to CD4+ and CD8+ leukocytes and CD31+ endothelial cells derived from male or female gal-1−/− null mice. FITC-Galectin-1 preparation. Gal-1 was conjugated with fluorescein isothiocyanate (FITC) using a FITC:protein molar ratio of 10:1. Gal-1 (2 mg/ml) was dissolved in […] of 20 mM potassium phosphate buffer, pH 7.4, followed by addition of approximately 50 μL FITC (10 mg/ml) that had been dissolved in 0.1 mM sodium bicarbonate. The resulting lower pH (approximately pH 8) ensured selective labeling at the N-terminal amine group of the protein (Hungerford et al., 2007, Photochem Photobiol Sci; 6(2):152-158; and Hermanson, 2008, Bioconjugate Techniques, 2nd ed.; Academic Press: Burlington, Mass. Part 1, 1202 pp). This solution was then mixed thoroughly and incubated at room temperature (22° C.) for 18 hours in the dark. During the course of the reaction, the mixture was gently vortexed 3 or 4 times. The resulting FITC-labeled protein was separated from unbound dye by filtration using an Amicon Ultra cellulose filter (Millipore, 10 kDa cut-off). […] Flow Cytometry. Male and female gal-1 null mice (Jackson Laboratory) were provided water and standard chow ad libitum and were maintained on a 12-hour light/dark cycle prior to experiments that were approved by the University of Minnesota Research Animal Resources Ethical Committee. For FACS experiments, spleens from these mice (6-10 weeks old) were harvested and non-enzymatically disrupted by shear force to yield single-cell suspensions (Dings et al., 2011, Clin Cancer Res; 17(10):3134-3145). Cell suspensions were prepared in Hanks's balanced solution. Red blood cells were lysed in ACK (Lonza Walkersville) for 5 minutes on ice and suspensions were filtered through nylon mesh. Spleen cells were then washed and incubated with monoclonal antibodies as indicated for 40 minutes on ice. After an additional washing step, various concentrations of gal-1 (with or without OTX-008) were added and incubated for 30 minutes on ice. Prior to FACS analysis, cell suspensions were washed once more and analyzed by multi-parameter flow cytometry on a LSR II flow cytometer (BD Biosciences) using Flowjo software (Tree Star, Inc.) (Dings et al., 2011, Clin Cancer Res; 17(10):3134-3145).
(In flow cytometry, cells or beads pass a laser one at a time.)

For data set [3], the system named is human cancer cell lines. Kind of data set: Cell viability assay (MTT). In kind it is cell-based. Particulars: 72 h drug exposure, 48 h wash-out. An excerpt:
FIGS. 8A-8C illustrate the concentration of OTX-008 (“0118”) required for inhibiting cell viability is proportional to Gal-1 expression. FIG. 8A illustrates the anti-viability effects (expressed as % change in cell numbers over time) of OTX-008 using the MTT assay in human cancer cell lines. FIG. 8B illustrates cancer cells that are sensitive to OTX-008 expressed […] galectin-1 protein expression as determined using Western Blot analysis. FIG. 8C illustrates that concentration of OTX-008, as established by plotting the IC50 in cancer cells, is proportional to their relative LGALS1 mRNA expression as assessed by qRT-PCR.
Cell lines. HEP2, SQ20B, HT29, DU145, and SKHEP1 cells were obtained from the ATCC (Rockville, Md., USA). COL0205-S cells were obtained from the National Cancer Institute collection. […]
Cell viability assay. Cell viability (i.e. cell proliferation and/or cytotoxicity) was determined using the MTT assay (3-[4,5-dimethylthiazol-2-yl]-2,5-diphenyltetrazolium bromide; Sigma, Saint-Quentin Fallavier, France). […] After incubation, the supernatant was discarded, insoluble formazan precipitates were dissolved in 0.1 mL of DMSO and the absorbance was measured at 560 nm by use of a microplate reader (Thermo, France). […] IC50 was determined as half the maximal inhibitory drug concentration for each cell line.

Data set [4] concerns the target T2, human galectin-1 (gal-1) (Homo sapiens, UniProt P09382).
T2 construct: made in house; host or cells: E. coli BL21 (DE3)
Put plainly: 1H-15N HSQC NMR binding of OTX-008 to 15N-labeled gal-1. The note with it: total gal-1 monomer 60 μM, pH 7.0, 30° C., HSQC intensity changes averaged over all resonances; read-out: Kd, estimate from mid-point of saturable binding curve (free OTX-008 at 50% intensity change). As to the method: Galectin-1 preparation. […] Typically, 44 milligrams of purified protein were obtained from 1 liter of cell culture. The purity of the final sample was quantified by using the Biorad protein assay and was checked for purity by using SDS PAGE. Functional activity of the purified protein was assessed by a T-cell death assay (Nesmelova et al., 2008, Biomol NAR Assignments; 2(2):203-205).
Heteronuclear NMR Spectroscopy. […]
NMR experiments were carried out at 30° C. on a Varian Unity Inova 600-MHz spectrometer equipped with an H/C/N triple-resonance probe and x/y/z triple-axis pulse field gradient unit. […] Raw data were converted and processed by using NMRPipe (Delaglio et al., 1995, J Biomol NMR; 6(3):277-293) and were analyzed by using NMRview (Johnson, 2004, Methods Mol Biol; 278:313-352).
Although an accurate equilibrium ligand dissociation constant, Kd cannot always be determined from data such as these, a plot of OTX-008-induced intensity changes averaged over all resonances vs. the concentration of OTX-008 does yield a saturable binding curve (inset of FIG. 2). […]

The test system of data set [5] is Jurkat E6.1 cells. Kind of data set: Agglutination assay, gal-1 induced. In kind it is cell-based. The note with it: Homo sapiens, 20 μM OTX-008, 1 μM gal-1, 22° C., read-out: inhibition of cell agglutination. As to the method:
FIG. 7 depicts Jurkat E6.1 cells agglutination as induced by addition of 1 μM gal-1 and incubated at 22° C. on plastic, round bottom chamber slides (Nunc, Naperville, Ill., USA), in medium alone or in the presence of 20 μM OTX-008 (“0118”).
Agglutination Assay. Jurkat E6.1 cells (2×10^6/200 μL RPMI 1640 medium) agglutination was induced by 1 μM gal-1 and were incubated on plastic round bottom chamber slides (Nunc, Naperville, Ill., USA) in medium alone or with 20 μM OTX-008 at 22° C. Subsequently the cells were analyzed for agglutination with an Axiovert 10 inverted phase microscope equipped with a digital camera system (Zeiss, Germany), and digitally analyzed and differentially quantified by morphometric analysis, as described earlier (Dings et al., 2008, Cancer Lett; 265(2):270-280; and Dings et al., 2010, Bioconjugate Chem; 21(1):20-27).

Where [6] appears, read: read-out: inhibition of gal-1 binding to CD4+ (or CD8+) cells.
[7] abbreviates: read-out: inhibition of gal-1 binding to CD31+ cells.

T1 sequence (P09382 whole entry): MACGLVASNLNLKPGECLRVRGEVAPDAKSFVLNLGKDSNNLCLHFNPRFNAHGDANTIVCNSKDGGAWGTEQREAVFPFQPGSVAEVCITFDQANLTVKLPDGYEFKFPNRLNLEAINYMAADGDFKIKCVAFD
T2 sequence (P09382 whole entry): as above

In general, half-life refers to the time needed for the level to fall by half in the phase considered. The low end stands for rapid decline, the high end for slow decline. The inhibition is the change of the read-out against control, counted positive when it falls. By Kd is commonly meant the free concentration of one partner at which half of the binding sites on the other are occupied at equilibrium, for simple one-to-one binding. `CN(C)CCNC(=O)COc1c2cccc1Cc1cccc(c1OCC(=O)NCCN(C)C)Cc1cccc(c1OCC(=O)NCCN(C)C)Cc1cccc(c1OCC(=O)NCCN(C)C)C2` [OTX-008]: in data set [1] (human, in vivo, sc), the half-life was ~48 h. For the same molecule, in data set [1], the disease state result is reported as “apparent stabilization of disease state” and the toxicity result is listed as “absence of toxicity”. For the same molecule, in data set [2] (setting [6]), the inhibition at 20 µM is ~80% and the inhibition at 100 µM was found to be 100%. In data set [2] (setting [7]), the inhibition at 20 µM was ~50% and the inhibition at 100 µM is ~70%. Also, in data set [3], the “inhibition of cell viability on several cell types in culture” value is “dose-dependent”. In addition, the Kd in data set [4] was ~30 µM. For the same molecule, the inhibition at 20 µM in data set [5] is ~80%.
